From patent US12421216B2, “Voruciclib polymorphs and methods of making and using thereof” (MEI PHARMA, INC., priority 2019, dated 2025)
Entries after “also recorded” stand apart in the source; their conditions may differ.

Columns and labels:
[1] = Solubility of salts in water and in 0.2 M phosphate buffer pH 6 at 37° C. after 4 hours (HPLC-DAD); assay type: physicochemical; details: for pH (4 h): pH at end of equilibration
Method: Two sets of solubility experiments were performed. […] In the second set of solubility experiments about 5 mg of the salt was weighed in a standard 1.8 mL HPLC vial. Subsequently, aliquots of 200 μL of aqueous medium were added up to a maximum of 1 mL, while making observations regarding the dissolution behavior of the salts. The vials were left to equilibrate at 37° C. with continuous stirring (see Table 25 for details). After 4 hours the solids were separated from the liquid by centrifugation and the liquid phase was further filtrated through a […] PTFE filter to remove any particulate matter. The concentration of solute was determined by HPLC-DAD analysis. A calibration curve was made from two independent stock solutions of voruciclib prepared in acetonitrile/water. The pH was recorded at the end of the equilibration time.

[2] = Physical stability upon exposure to accelerated aging conditions (AAC, 40° C./75% RH), re-analysis by HT-XRPD; assay type: physicochemical; details: for Physical stability upon exposure to AAC / Stable during AAC: 40° C./75% RH, 2 days; for Physical stability upon exposure to AAC: HT-XRPD before and after; for Solid phase AAC (XRPD form after accelerated aging): precipitated solids of the salt screen, dried under vacuum at 50° C., 40° C./75% RH for 2 days, HT-XRPD; for Stable during AAC: salt screen solids
[3] = 0.2 M phosphate buffer pH 6, 37° C., 4 hours
[4] = 0.2M phosphate buffer pH 6, 37° C., 4 hours, about 1 mg salt in 1 mL
[5] = 0.2M phosphate buffer pH 6, 37° C., 4 hours, about 5 mg salt in 1 mL
[6] = 0.2M phosphate buffer pH 6, 37° C., about 1 mg salt in 1 mL
[7] = 0.2M phosphate buffer pH 6, 37° C., about 5 mg salt in 1 mL
[8] = water, 37° C., 4 hours, about 1 mg salt in 1 mL
[9] = water, 37° C., 4 hours, about 5 mg salt, up to 1 mL
[10] = water, 37° C., about 1 mg salt in 1 mL
[11] = water, 37° C., about 5 mg salt, up to 1 mL

Structure (SMILES)	Solubility in phosphate buffer [1, 3] [µg/mL]	solubility [1, 4] [µg/mL]	solubility [1, 5] [µg/mL]	Form (4 h) of residual solid [1, 6]	pH (4 h) [1, 6]	Form (4 h) of residual solid [1, 7]	pH (4 h) [1, 7]	Dissolution behaviour in aqueous media (gelling, wettability) ([1]; salt screen, water and/or 0.2 M phosphate buffer pH 6)	Solubility in water ([1]; water, 37° C., 4 hours) [µg/mL]	solubility [1, 8] [µg/mL]	solubility [1, 9] [µg/mL]	Solids recovered after solubility determination in water ([1]; water, 37° C., 4 hours, XRPD)	pH (4 h) [1, 10]	Form (4 h) of residual solid [1, 11]	pH (4 h) [1, 11]	Physical stability upon exposure to AAC [2]	Solid phase AAC (XRPD form after accelerated aging) [2]	Stable during AAC [2]	Solids recovered / salt dissociation after solubility determination in buffer ([1]; 0.2 M phosphate buffer pH 6, 37° C., 4 hours, XRPD)
CN1CCC(c2c(O)cc(O)c3c(=O)cc(-c4ccc(C(F)(F)F)cc4Cl)oc23)C1CO.CN1CCC(c2c(O)cc(O)c3c(=O)cc(-c4ccc(C(F)(F)F)cc4Cl)oc23)C1CO.O=C(OC(C(=O)O)C(OC(=O)c1ccccc1)C(=O)O)c1ccccc1 (stereo not drawn) [DiTr1]	30 to 40	30	40	DiTr1	6.0	DiTr1	6.3	poor wettability	30 to 40	40	30	DiTr1 was recovered	4.0	DiTr1	3.5	physically stable under AAC; also recorded: physically stable upon exposure to AAC for two days	DiTr1	Yes	
CN1CC[C@@H](c2c(O)cc(O)c3c(=O)cc(-c4ccc(C(F)(F)F)cc4Cl)oc23)[C@@H]1CO.CN1CC[C@@H](c2c(O)cc(O)c3c(=O)cc(-c4ccc(C(F)(F)F)cc4Cl)oc23)[C@@H]1CO.O=S(=O)(O)c1cccc2c(S(=O)(=O)O)cccc12 [Nds1a]	20	20	20	Free	6.0	Nds1a	5.9		20	30	20	the residual solids were identical to Nds1a	4.3	Nds1a	3.4	stable during exposure to AAC for 2 days; also recorded: physically stable upon exposure to AAC for two days	Nds1a	Yes	the residual solids were identical to Nds1a
